Experimental data from article PMC9570995, “Design, Synthesis, and Biological Evaluation of Novel Dihydropyridine and Pyridine Analogs as Potent Human Tissue Nonspecific Alkaline Phosphatase Inhibitors with Anticancer Activity: ROS and DNA Damage-Induced Apoptosis” (Molecules, 2022).
Where two headings read alike, the source gives them in different places.

Biological target: T1, human tissue nonspecific alkaline phosphatase (h-TNAP) (Homo sapiens, UniProt P05186)
T1 sequence (P05186 18-524): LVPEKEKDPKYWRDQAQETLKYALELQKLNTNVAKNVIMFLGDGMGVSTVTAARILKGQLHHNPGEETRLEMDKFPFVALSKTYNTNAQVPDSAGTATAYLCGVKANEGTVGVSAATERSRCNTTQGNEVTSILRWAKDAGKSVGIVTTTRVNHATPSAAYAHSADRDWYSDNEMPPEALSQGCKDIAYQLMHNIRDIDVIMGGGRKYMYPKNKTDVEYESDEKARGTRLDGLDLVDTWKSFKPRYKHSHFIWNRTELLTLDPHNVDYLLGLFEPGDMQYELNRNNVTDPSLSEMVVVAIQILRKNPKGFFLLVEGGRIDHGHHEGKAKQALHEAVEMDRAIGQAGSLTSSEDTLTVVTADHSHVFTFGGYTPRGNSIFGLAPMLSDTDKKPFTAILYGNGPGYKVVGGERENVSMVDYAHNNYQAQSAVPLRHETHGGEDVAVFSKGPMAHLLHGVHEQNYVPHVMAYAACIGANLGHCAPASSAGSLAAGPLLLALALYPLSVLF
Assay: Alkaline phosphatase inhibition assay (p-NPP substrate)
Type: biochemical
Description: The newly synthesized compounds were tested against human tissue nonspecific alkaline phosphatase (h-TNAP). The compounds were initially tested against the h-TNAP enzymes at 1 mM concentration. The assay buffer (pH 9.5) constituted of 50% glycerol, followed by tris-hydrochloride (50.0 mM), MgCl2 (5.0 mM), and ZnCl2 (0.1 mM) in the solution. The enzyme substrate p-nitrophenyl phosphate (p-NPP) and all the required test compounds were diluted to the required concentration by a dilution buffer method. In a 96-well plate, the assay was started by adding 70 µL of assay buffer followed by 10.0 µL of the test compound (from 1 mM), 10.0 µL of the enzyme (0.5 µL/mL) and then subsequently incubating at 37 °C for 10 min. The reaction was initiated with the addition of 10.0 µL of substrate (5.0 mM p-NPP) into each well and incubated for an additional 30 min.
Percent inhibition was calculated by the formula:% Inhibition = [100 − (abs of test comp/abs of control) × 100]

- IC50 (Table 2, unit given in Table 1, read-out: Alkaline Phosphatase (h-TNAP) IC50): 1320 ± 260 nM
- fold more potent than levamisole (h-TNAP IC50 compared with levamisole): about seventeen-fold
- IC50 (h-TNAP, assay buffer pH 9.5, Table 1 and text, read-out: IC50 + SEM): 1320 ± 260 nM
SMILES: N#CC1=C(N)N(Cc2ccccc2)C(N)=C(C#N)C1c1ccc2ccccc2c1 [Compound 4d, 2,6-Diamino-1-benzyl-4-(naphthalen-2-yl)-1,4-dihydropyridine-3,5-dicarbonitrile]
